Read-outs that look alike come from different tables or passages of the source.
Legend:
[1] = NOAEL for HMB oral ingestion in rats (Baxter et al.); type: in vivo, rat; conditions: for estimated human equivalent dose of rat NOAEL: in vivo, oral; for estimated human equivalent of NOAEL as total amount: assuming a body weight of 150 lbs
Procedure: This is an estimated human equivalent of 558 mg/kg and 665 mg/kg for men and women, respectively; assuming a body weight of 150 lbs equates to 38 g (males) and 45 g (females). […] Overall, standard doses of HMB appear to be well-tolerated over long periods of time.

[2] = tested on: patients with statin-induced myopathy (SIM); assay: Example 1: HMB and leucic acid combination therapy in patients with statin-induced myopathy; type: in vivo, human; conditions: two patients with SIM on statin, summary
Procedure: The effects of combined administration of HMB and leucic acid was studied in two patients with statin-induced myopathy (SIM). Both patients enrolled were under the care of a board certified cardiologist. […] person with a history of PCI/coronary stent ramus intermedius; historically statin intolerant lipid disorder with LDL=168, total cholesterol=281, with triglycerides=316 on a hypolipidemic regimen of Welchol, 6 tabs/d (for a total of 1500-3000 mg/d) and Zetia, 10 mg/d; unable to achieve goal (i.e., LDL cholesterol <100 mg % in patients with coronary risk factors and <70 mg % in coronary patients (with previous myocardial infarction (MI), percutaneous coronary intervention (PCI), or coronary bypass surgery) as well as patients with peripheral vascular disease and diabetics) off statins and therefore begun on Vytorin, 10/40 mg daily+3-hydroxy 3-methyl butyrate (HMB) at 2 grams BID. […] person with angiographic small vessel disease; type 2 diabetes and type 2a hyperlipidemia; history of statin intolerance with myalgia, weakness and severely elevated CPKs (900-1000 range, normal 200); patient therefore treated with Welchol 6 grams/d and Zetia 10 mg/d with an LDL=185 on this regimen. The patient was subsequently placed on Crestor 20 mg/d+HMB 2 grams BID with a drop in LDL=49 and improved CPK levels (300-400 range).

rats = conditions: oral ingestion, cited from earlier work
Human = conditions: cited from earlier work
[3] = in vivo; cited from earlier work
[4] = towards oxygenation in humans; cited from earlier work

| Compound | estimated human equivalent dose of rat NOAEL ([1]; female, women) [mg/kg] | estimated human equivalent of NOAEL as total amount ([1]; females) [g] | estimated human equivalent dose of rat NOAEL ([1]; male, men) [mg/kg] | estimated human equivalent of NOAEL as total amount ([1]; males) [g] | resolution of SIM [2] | No Observed Adverse Effect Level (NOAEL) (rats; female rats) [mg/kg] | No Observed Adverse Effect Level (NOAEL) (rats; male rats) [mg/kg] | toxicological parameters in serum (Human; 3 g HMB daily for up to 8 weeks, youth and older persons) | safety of long-term administration (Human; 3 g daily, one year of administration) | toxic effects on serum parameters (Human; approximately 6 g HMB daily (78 mg/kg) for one month, untrained young males subject to exercise) | basophils (Human; half the dose (of approximately 6 g daily), considered to be insignificant) | tolerability (Human; standard doses over long periods of time) | half-lives [3] | time to reach peak levels [3] | reaction half time [4] [min] |
| --- | --- | --- | --- | --- | --- | --- | --- | --- | --- | --- | --- | --- | --- | --- | --- |
| CC(C)(O)CC(=O)O [HMB, β-hydroxy β-methylbutyrate] | 665 | 45 | 558 | 38 | incomplete resolution of SIM | 4160 | 3490 | failed to alter toxicological parameters in serum | safe | did not show any toxic effects | spontaneous increase in basophils | well-tolerated | relatively short | quickly | – |
| CC(C)CC(O)C(=O)O (centres unmarked) [leucic acid, 2-hydroxy-4-methylpentanoic acid] | – | – | – | – | – | – | – | – | – | – | – | – | relatively short | quickly | 230 |

From patent US20190262291A1, “METHODS AND COMPOSITIONS FOR ALLEVIATING MYOPATHY” (priority 2016, published 2019)
